According to patent US8932594B2, “Adjuvants and methods of use” (The Scripps Research Institute, priority 2006, dated 2015):

Experiments:
[1] = target: T1, CD1d (Mus musculus, UniProt P11609); assay: Loading of CD1d molecules, native isoelectric focusing (IEF) gel assay; assay type: binding; conditions: 2 μM CD1d, 20 μM lipid, 1 hour at 37° C., no saposin B
T1 sequence (P11609 19-297 limits assumed): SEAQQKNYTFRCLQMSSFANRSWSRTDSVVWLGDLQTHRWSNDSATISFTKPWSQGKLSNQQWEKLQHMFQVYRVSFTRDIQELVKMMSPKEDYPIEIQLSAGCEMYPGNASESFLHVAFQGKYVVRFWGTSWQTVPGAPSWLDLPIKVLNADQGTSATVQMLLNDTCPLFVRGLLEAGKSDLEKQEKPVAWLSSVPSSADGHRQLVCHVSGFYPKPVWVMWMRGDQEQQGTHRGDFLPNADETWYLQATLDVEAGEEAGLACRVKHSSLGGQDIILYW
T1 sequence (P01887 21-119 partner): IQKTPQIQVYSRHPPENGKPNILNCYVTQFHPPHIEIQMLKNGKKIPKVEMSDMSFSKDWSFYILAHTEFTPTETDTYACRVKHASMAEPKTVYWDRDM
Experimental: Whether PBS-31 and PBS-32 could be efficiently loaded onto CD1d molecules was tested using a native isoelectric focusing (IEF) gel assay in the presence and absence of saposin B. For comparison, PBS-41 and PBS-46 (sulfo-β-galactosylceramides), PBS-36 and PBS-58 (sulfo-α-glucosylceramides) and PBS-35 and PBS-40 (β-glucosylceramides) were also evaluated in this assay.
Each 5 μl reaction contained 2 μM CD1d, 20 μM lipid and 10 μM saposin B. Reactions were incubated for 1 hour at 37° C. prior to gel loading.
Loaded species are indicated by a star in FIG. 3. The lanes of FIG. 3 were loaded as follows: 1, no lipid; 2, αGalCer; 3, PBS-31; 4, PBS-32; 5, no lipid; 6, iGB3; 7, PBS-40; 8, PBS-41; 9, PBS-35; 10, PBS-46; 11, PBS-58; 12, PBS-25 (positive control).

[2] = tested on: NKT cells; assay: Cytokine production by stimulated NKT cells (splenocytes), ELISA; assay type: cell-based; conditions: 24 hours incubation with splenocytes
Experimental: NKT cells were stimulated with PBS-32 or control compounds presented by plate-bound CD1d, splenocytes or purified mature DCs. Production of IFN-γ, IL-4, IL-10 and GM-CSF was measured by ELISA. […] The control lipids (glucosyl and galactosyl) were negative in the same assays. Cytokine induction was CD1d-dependent because induction was blocked by anti-CD1d antibodies and no cytokine induction was observed when DCs from CD1d^−/− mice were used (data not shown).

[3] = tested on: DN32.D3 cells; assay: DC-free assay: plate-coated murine CD1d, DN32.D3 cells, IL-2 production; assay type: cell-based; conditions: for requirement of processing by DCs for stimulation of NKT cells: plate-coated murine CD1d, with saposin B, 24 hours, data not shown
Experimental: To determine whether presentation of PBS-31 and PBS-32 to NKT cells was dependent on processing by DCs, a DC-free assay was used in which murine CD1d was coated on 96 well plates. PBS-31, PBS-32 and control compounds were added at various concentrations in the presence and absence of saposin B. DN32.D3 cells were added and supernatants were harvested after 24 hours and production of IL-2 was measured.

[4] = tested on: CD1d-restricted Vα14 NKT hybridoma cell, DN32.D3; assay: Stimulation of NKT hybridoma DN32.D3 by lipid-pulsed APCs, IL-2 release; assay type: cell-based, mice; conditions: for presentation by DCs isolated from CD1-TD mice: DCs with disrupted cytoplasmic tail of CD1d, data not shown; for presentation by splenocytes to DN32.D3 (IL-2 release): irradiated splenocytes, 24 hours
Experimental: Compounds PBS-31, PBS-32, and control lipids were evaluated for their ability to stimulate a canonical CD1d-restricted Vα14 NKT hybridoma cell, DN32.D3 in an assay described by Lantz, et al., J. Exp. Med. 180: 1097-1106 (1994). Irradiated splenocytes were pulsed with decreasing concentrations of the lipids and control compounds, and incubated with DN32.D3 cells for 24 hours. Supernatants were harvested and IL-2 release was measured using a [^3H]-thymidine incorporation assay with an IL-2 dependent cell line as described by Cantu, et al., J. Immunol. 170:4673-4682 (2003).
Similar results were obtained when mature DCs were used as the APCs (data not shown). […] Therefore, presentation of PBS-31 and PBS-32 and concomitant stimulation of NKT cells is dependent on lysosomal targeting of CD1d.

[5] = tested on: human NKT cell line; assay: Activation of human NKT cell line, IL-4 and IFN-γ ELISA; assay type: cell-based; conditions: 24 hours incubation with PBLs or matured DCs
Experimental: The agonistic activity of PBS-31 and PBS-32 was examined for human NKT cells. A human NKT cell line was stimulated with irradiated peripheral blood lymphocytes (PBLs) or in vitro matured DCs in the presence of PBS-31, PBS-32 and control lipid, iGB3. (Mattner et al., Nature 434: 525-529 (2005) incorporated herein by reference in its entirety.) After 24 hours incubation, supernatants were harvested and assayed for the presence of IL-4 and IFN-γ by ELISA.

[6] = tested on: splenic DCs; assay: Induction of DC maturation in vivo, FACS of splenic cells; set-up: species or system mice; conditions: for DC phenotype (CD40, CD80, CD86, MHC class II expression): CD11c+/CD8+ and CD11c+/CD8− cells
Experimental: Mice were injected with α-GalCer, PBS-31 and PBS-32 and DC differentiation was examined in splenic DCs by analyzing cell surface marker expression.
Three mice in each group were injected intravenously with 1 μg lipid or vehicle alone. At 24 hours post-injection, CD1d expression was examined on splenic B cells (B220+), macrophages (CD11b+) and DCs (CD11c+) by FACS analysis using a FACScalibur machine and FlowJo analysis software.
The maturation of DCs was analyzed by measuring expression of CD40, CD80, CD86, and MHC class II on CD11c^+/CD8^+ and CD11c^+/CD8^− cells (FIG. 8). […] PBS-32 and αGalCer reached maximal induction between 0.1 and 1 μg (data not shown).
Induction of DC maturation was unaffected in MyD88^−/− and MyD88^−/−TRIF^−/− knock out animals in which the Toll-like receptor pathway is partially, or totally impaired, respectively (data not shown). The CD1d-dependence was confirmed by injecting CD1d^−/− mice with the lipids.

[7] = tested on: ovalbumin-specific CD8+ T cell and IgG responses; assay: Adjuvant capability with ovalbumin antigen; assay type: in vivo, mice; conditions: for H-2Kb/ova257-264 tetramer positive cells in the CD8+ T cell pool: ovalbumin plus 1 μg lipid intravenous, peripheral blood, day 7 post-injection; for IgG anti-ovalbumin response: ovalbumin plus lipid, ELISA, compared to control group
Experimental: The potential adjuvanticity of PBS-31 and PBS-32 combined with a nominal protein antigen, ovalbumin, was conducted following a protocol similar to that of Fujii et al., J. Exp. Med. 198: 267-279 (2003) and Hermans et al., J. Immunol. 171: 5140-5147 (2003), which are incorporated herein by reference in their entireties. Ovalbumin was injected intravenously either alone or in combination with 1 μg of PBS-31, PBS-32 or PBS-57. […] In the absence of working tetramers to follow MHC class II responses, only CD8+ responses and B cell responses were evaluated.
CD8+ T cell responses were evaluated by enumerating the H-2K^b/ova257-264 tetramer positive cells in peripheral blood at 7 days post-injection and are expressed as the percentage H-2K^b/ova257-264 positive cells in the CD8+ T cell pool. At day 7 post-injection, antigen-specific H-2K^b/ova257-264 tetramer positive cells were increased to about 3% in the PBS-32 injected group whereas they expanded to almost 6% in the PBS-57 treated group (FIG. 9A). […] These strong IgG responses may indirectly reflect a significant boost of the ovalbumin-specific CD4+T helper compartment as well.
When CD1d^−/− mice were injected following the same protocol, no increase in either anti-ovalbumin IgG or in the anti-ovalbumin CD8+ T cells were noted (data not shown).

[8] = tested on: lymphocytic choriomeningitis virus (LCMV); assay type: in vivo, C57BI/6 mice; conditions: 1 μg intravenous before 10^6 PFU LCMVArm, day 8 post-infection, intracellular IFN-γ
[9] = tested on: murine Vα14 NKT cell line; assay: Lipid-loaded CD1d tetramer staining of NKT cell line, FACS; assay type: binding; conditions: lipid-loaded CD1d tetramers; data not shown
Experimental: PBS-32-loaded CD1d tetramers, as well as control αGalCer tetramers, were prepared as described in Benlagha et al., J. Exp. Med. 191: 1895-1903 (2000) incorporated herein by reference in its entirety. The resulting tetramers were used to stain a murine Vα14 NKT cell line. After washing, the cells were analyzed on a FACSCalibur (BD Biosciences) using FlowJo software.

[10] = tested on: C57BI/6 mice; assay: Serum cytokines after intravenous injection, ELISA; assay type: in vivo; conditions: 1 μg intravenous
Experimental: In vivo, following intravenous injection of 1 μg of positive control compound, αGalCer, or PBS-32, IFN-γ production in the serum of C57BI/6 mice was measured by ELISA and was very similar for both compounds (2500 pg/ml and 1500 pg/ml at 24 hours, respectively). IL-4 was undetectable following PBS-32 injection. […] At eight hours post-injection, PBS-32 induced 600 pg/ml IFN-γ.

[11] = target: Vα14/2Cβ TCR; conditions: previously reported, Cantu et al. 2003; read-out: affinity of the TCR for CD1d-lipid complex; cited from earlier work

CCCCCCCCCCCCCC[C@@H](O)[C@@H](O)[C@H](CO[C@H]1O[C@H](CO)[C@H](O)[C@H](O)[C@H]1O)NC(=O)CCCCCCC [PBS-25]
loading of CD1d in the absence of saposin B [1]: marginally loaded in the absence of saposin B

CCCCCCCCCCCCCCCCCCCCCCCCCC(=O)NC(COC1OC(CO)C(O)C(OS(=O)(=O)O)C1O)C(O)C(O)CCCCCCCCCCCCCC (centres unmarked) [PBS-31]
GM-CSF secretion [2]: induced only GM-CSF | IFN-γ secretion [2]: induced only GM-CSF | IL-4 secretion [2]: induced only GM-CSF | IL-10 secretion [2]: induced only GM-CSF | requirement of processing by DCs for stimulation of NKT cells [3]: does not require processing by DCs | presentation by DCs isolated from CD1-TD mice [4]: inefficient at presenting | presentation by splenocytes to DN32.D3 (IL-2 release) [4]: efficiently presented | IFN-γ secretion [5]: significantly less | IL-4 secretion [5]: almost equivalent amounts | DC maturation effect relative to the other lipids ([6]; 1 μg intravenous, 24 hours): less pronounced effect | DC phenotype (CD40, CD80, CD86, MHC class II expression) ([6]; 1 μg intravenous, 24 hours): mature phenotype | lesser potency on DC maturation at increased doses ([6]; doses up to 50 μg per mouse, data not shown): could not be overcome

CCCCCCCCCCCCC/C=C/[C@@H](O)[C@H](CO[C@@H]1O[C@H](CO)[C@@H](O)[C@H](OS(=O)(=O)O)[C@H]1O)NC(=O)CCCCCCCCCCCCCCCCCCCCCCCCC [PBS-32, sulfoglucosylceramide]
GM-CSF secretion [2]: induced secretion | IFN-γ secretion [2]: induced secretion | IL-4 secretion [2]: induced secretion | IL-10 secretion [2]: not IL-10 | adjuvant activity with purified protein antigen ([7]; in combination with ovalbumin): had adjuvant activity | H-2Kb/ova257-264 tetramer positive cells in the CD8+ T cell pool [7]: about 3% | IgG anti-ovalbumin response [7]: dramatically boosted | anti-LCMV CD4+ T cell response (GP61, NP309) [8]: significant increase | anti-LCMV CD8+ T cell response (GP33, NP396, GP276) [8]: did equally well | tetramer staining intensity [9]: less intense than for CD1d-αGalCer tetramers but homogenous | relative potency in IL-2 production [3]: consistently more potent than phytoceramide PBS-31 | requirement of processing by DCs for stimulation of NKT cells [3]: does not require processing by DCs | presentation by DCs isolated from CD1-TD mice [4]: inefficient at presenting | presentation by splenocytes to DN32.D3 (IL-2 release) [4]: efficiently presented | IL-4 in serum [10]: undetectable | timing of IFN-γ production [10]: earlier IFN-γ production than α-GalCer | IFN-γ production in the serum ([10]; at 24 hours): 1500 pg/mL | IFN-γ production in the serum ([10]; eight hours post-injection): 600 pg/mL | IFN-γ secretion [5]: able to induce | IL-4 secretion [5]: almost equivalent amounts | DC phenotype (CD40, CD80, CD86, MHC class II expression) ([6]; 1 μg intravenous, 24 hours): mature phenotype

CCCCCCCCCCCCCCCCCCCCCCCCCC(=O)NC(COC1OC(CO)C(O)C(OS(=O)(=O)O)C1O)C(O)C(O)CCCCCCCCCCCCCC (centres unmarked) [PBS-36]
loading of CD1d in the absence of saposin B [1]: loaded onto CD1d in the absence of saposin B

CCCCCCCC/C=C\CCCCCCCCCCCCCC(=O)N[C@@H](CO[C@H]1O[C@H](CNC(C)=O)[C@H](O)[C@H](O)[C@H]1O)[C@H](O)[C@H](O)CCCCCCCCCCCCCC [PBS-57, reference compound]
H-2Kb/ova257-264 tetramer positive cells in the CD8+ T cell pool [7]: ~6% | IgG anti-ovalbumin response [7]: dramatically boosted

CCCCCCCCCCCCC/C=C/[C@@H](O)[C@H](CO[C@H]1O[C@H](CO)[C@@H](O)[C@H](OS(=O)(=O)O)[C@H]1O)NC(=O)CCCCCCCCCCCCCCCCCCCCCCCCC [PBS-58]
loading of CD1d in the absence of saposin B [1]: marginally loaded in the absence of saposin B

CCCCCCCCCCCCCCCCCCCCCCCCCC(=O)N[C@@H](CO[C@H]1O[C@H](CO)[C@H](O)[C@H](O)[C@H]1O)[C@H](O)[C@H](O)CCCCCCCCCCCCCC [αGalCer, α-galactosylceramide, reference compound]
anti-LCMV CD4+ T cell response (GP61, NP309) [8]: unchanged | anti-LCMV CD8+ T cell response (GP33, NP396, GP276) [8]: significantly increase | IFN-γ production in the serum ([10]; at 24 hours): 2500 pg/mL | Kd [11]: 30 nM | DC phenotype (CD40, CD80, CD86, MHC class II expression) ([6]; 1 μg intravenous, 24 hours): mature phenotype

isoglobotrihexosylceramide [iGB3, reference compound]
IL-4 secretion [5]: almost equivalent amounts
